Experimental data: publication PMC12587390, “Metabolite Identification Data in Drug Discovery, Part 1: Data Generation and Trend Analysis” (Molecular Pharmaceutics, 2025)

Legend:
[1] = MetID on in vivo dog samples (plasma, urine); parameters: species or system dog (beagles); conditions: sampled at 3 h and 30 min
Experimental: (§1) The workup procedure could vary somewhat depending on the compound and dose, but the general procedure was as follows: Two volumes of ACN/methanol (1:1, v:v) were added to the plasma samples and vortex-mixed to precipitate the proteins. Thereafter, the samples were centrifuged for 10 min (at 10,000 g and 4 °C), and the supernatants were diluted with one volume of water. The urine samples were diluted with one volume of ACN/methanol (1:1, v:v) and centrifuged for 10 min (at 10,000 g and 4 °C), followed by a 1:1 dilution with water.
(§2) Structural characterization of metabolites and metabolite profiling were performed using the Waters Acquity ultraperformance liquid chromatography (UPLC) system fitted to a Waters High-Resolution Mass Spectrometer (MS) (Xevo G2-S, Synapt G2-Si, or a Synapt XS MS). The Waters MS systems, equipped with an electrospray ionization (ESI) source, were operated in positive-ion sensitivity mode over a mass range m/z 50–1200 and in negative-ion sensitivity mode over a mass range m/z of 50–1200.
(§3) The reversed-phase gradient elution was performed on an Acquity U(H)-PLC BEH C18 column (2.1 × 100 mm, 1.7 μm, Waters) set at 45 °C. The mobile phases consisted of 0.1% FA in water (A) and ACN (B). […] The injection volume was 2 μL. The MS settings were optimized for the respective MS instrument. […] A scan time of 0.1 s was used, and data were acquired in centroid mode. Collision energy was set to “off” for the low-energy function, whereas in the high-energy MSe functions, the collision energies were typically ramped from 15 to 35 V in the trap cell, with constant collision energies of 20 V in their transfer cells. Cone voltage was set to 25 V for both low- and high-energy functions. For dedicated MS/MS, the m/z of the molecular ion was selected in the quadrupole, and the mass range for fragmentation analysis was typically set between 50 and 1200. The collision energies were either the same as those stated above for MSe data generation or optimized for a specific metabolite. Tune parameters for all MS analyses consisted of a capillary energy of 0.5 kV, sampling cone energy of 40 V, source temperature of 150 °C, desolvation temperature of 550 °C, cone gas flow of 0 L/h, desolvation gas flow of 1200 L/h, and nebulizer pressure of 6.5 bar.
(§4) Metabolite identification was conducted by processing the generated data using the MetaboLynx XS browser (Waters), MassMetaSite and the web interface ONIRO (Mass Analytica). […] Accurate masses of metabolites were determined from the protonated molecules in the positive ESI time-of-flight MS (ESI–TOF–MS) mode and from the deprotonated molecules in the negative ESI–TOF–MS mode. […] For those metabolites where no MS/MS data could be acquired, identification was based on the accurate mass of the molecular ion and the fragmentation seen in the MSe spectrum. Relative amounts of detected metabolites were calculated as % of the total MS area by dividing the MS peak area for the metabolite (or parent compound) by the combined MS peak area for the parent compound and all identified metabolites.

[2] = MetID on in vivo rat plasma samples; parameters: species or system rat (Han Wistar)
Experimental: as §1, §2, §3, §4

[3] = test system: dog hepatocytes; experiment: Metabolite identification in dog hepatocyte incubations; type: in vitro ADME; conditions: Cmpd 28 incubated for 120 min, 4 μM
Experimental: (§5) Cryopreserved, pooled primary human, dog, and rat hepatocytes were obtained from BioIVT (previously Celsis IVT). L-15 Leibovitz buffer was placed in a water bath to reach 37 °C. Cryopreserved hepatocytes were transferred from a −150 °C freezer on dry ice and immediately immersed in a preheated water bath kept at 37 °C for thawing. When only a small ice crystal could be seen, the content was emptied into a 50 mL falcon tube filled with warm buffer (maximum four vials/falcon tube). The suspension was centrifuged at room temperature for 3 min at 50 g. The supernatant was removed, the pellet was resuspended in a small volume of buffer, and the falcon tube was refilled with buffer, followed by another centrifugation to wash away any remaining storage buffer. Thereafter, the supernatant was removed, and the pellet was dissolved in a small volume of buffer and diluted to a concentration of about 3–5 million cells/mL. After counting the cells using a Casy cell counter, the suspension was diluted to 1 million viable cells/mL and kept at room temperature until use. The viability cutoff was 80%.
(§6) An aliquot of 245 μL of hepatocyte suspension was added to a round-bottomed 96-deep-well plate using a manual multipipette. The deep-well plate was preincubated for 15 min at 37 °C and 13 Hz. Substrate solutions of the assay compounds were prepared by the robot in a 96-well plate as follows: 4 μL of 10 mM DMSO stock solution, followed by the addition of 96 μL of ACN:water (1:1, v:v) and mixing by shaking. 50 μL from each well were transferred to and combined in a new plate, resulting in 100 μL per well and a dilution of 1:1.
(§7) The reaction was started by the addition of 5 μL of 200 μM substrate solution to the preheated hepatocyte suspension, resulting in a final substrate concentration of 4 μM (0.04% DMSO, <0.5% ACN). The incubation was continued at 37 °C and 13 Hz. At each time point (0, 40, and 120 min), a 50 μL sample was taken out and quenched in 200 μL of cold ACN:methanol (1:1, v:v), and the stopped plates were centrifuged for 20 min (set at 4 °C and 4000 g). The supernatant was diluted by taking 50 μL and mixing it with 100 μL of water. Incubations of the positive controls, albendazole and dextromethorphan, were performed in parallel as described above.
as §2
The reversed-phase gradient elution was performed on an Acquity U(H)-PLC BEH C18 column (2.1 × 100 mm, 1.7 μm, Waters) set at 45 °C. The mobile phases consisted of 0.1% FA in water (A) and ACN (B). […] The injection volume was 2 μL. The MS settings were optimized for the respective MS instrument. […] A scan time of 0.1 s was used, and data were acquired in centroid mode. Collision energy was set to “off” for the low-energy function, whereas in the high-energy MSe functions, the collision energies were typically ramped from 15 to 35 V in the trap cell, with constant collision energies of 20 V in their transfer cells. Cone voltage was set to 25 V for both low- and high-energy functions. For dedicated MS/MS, the m/z of the molecular ion was selected in the quadrupole, and the mass range for fragmentation analysis was typically set between 50 and 1200. The collision energies were either the same as those stated above for MSe data generation or optimized for a specific metabolite.

[4] = test system: rat hepatocytes; experiment: Metabolite identification in rat hepatocyte incubations; type: in vitro ADME; conditions: Cmpd 28 incubated for 120 min, 4 μM
Experimental: as §5, §6
as §7, with “The supernatant was diluted by taking 50 μL and mixing it with 100 μL of water. Incubations of the positive controls, albendazole and dextromethorphan, were performed in parallel as described above.” left out

[5] = after Cmpd 16, semiquantitative
[6] = after Cmpd 16, oral, sampled at 60 min

| Compound | % of the total MS area, Dog Plasma (Female) [1, 5] [%] | % of the total MS area, Rat Plasma (Female) [2, 6] [%] | % of the total MS area, Rat Plasma (Male) [2, 6] [%] | % of the total MS area, Dog Hepatocytes (Mixed gender) [3] | % of the total MS area, Rat Hepatocytes (Mixed gender) [4] | % of the total MS area, Dog Plasma (Female) ([1]; after Cmpd 28) [%] | % of the total MS area, Rat Plasma (Female) ([2]; after Cmpd 28, sampled at 4 h) | % of the total MS area, Rat Plasma (Male) ([2]; after Cmpd 28, sampled at 4 h) |
| --- | --- | --- | --- | --- | --- | --- | --- | --- |
| O=C(O)[C@@H]1CCCC[C@H]1C(=O)c1ccc(-c2cc[nH]n2)cc1 [Cmpd 16 M10] | 1 | 1 | 1 |  |  |  |  |  |
| O=C(Nc1c[nH]nc1C(F)(F)F)[C@@H]1CCCC[C@H]1C(=O)c1ccc(-c2cc[nH]n2)cc1 [Cmpd 16 M12] | 2 | 2 |  |  |  |  |  |  |
| O=C(O)[C@H]1OC(OC(=O)[C@@H]2CCCC[C@H]2C(=O)c2ccc(-c3cc[nH]n3)cc2)[C@H](O)[C@@H](O)[C@@H]1O (stereo partly shown) [Cmpd 16 M13] | 0.5 |  |  |  |  |  |  |  |
| Cc1cc(-c2ccc(C(=O)[C@@H]3CCCC[C@H]3C(=O)O)cc2)n[nH]1 [Cmpd 28 M1] |  |  |  | 4% | no detection | 12 | 18% | 17% |
| Cc1cc(-c2ccc(C(=O)C3CCCCC3C(=O)OC3OC(C(=O)O)C(O)C(O)C3O)cc2)n[nH]1 (stereo not shown) [Cmpd 28 M2] |  |  |  | 4% | no detection | 40 | 1% | 0.5% |
| Cc1nn(C)cc1NC(=O)[C@@H]1CCCC[C@H]1C(=O)c1ccc(-c2cc(CO)[nH]n2)cc1 [Cmpd 28 M4] |  |  |  | 2% | 3% | 1 | not seen | not seen |
| Cc1nn(C)cc1NC(=O)[C@@H]1CCCC[C@H]1C(=O)c1ccc(-c2cc(C(=O)O)[nH]n2)cc1 [Cmpd 28 M7] |  |  |  | not detected |  | 5 | not seen | not seen |
| Cc1cc(-c2ccc(C(=O)[C@@H]3CCCC[C@H]3C(N)=O)cc2)n[nH]1 [Cmpd 28 M8] |  |  |  |  |  |  | 1% | 3% |
| O=C(O)[C@@H]1CCCC[C@H]1C(=O)c1ccc(-c2cc(CO)[nH]n2)cc1 [Cmpd 28 M10] |  |  |  |  |  |  |  | 1% |
